PubChem BioAssay (NCI)
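Growth conditions: 96-well plates. Treatment: test compound, 48 hours, 5 concentrations. Analysis: linear interpolation between bracketing concentrations; unreached endpoints set to highest concentration. At the TGI there is no net growth.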

Columns and labels:
Assay in all cases: growth of human tumour cells (NCI), 48 h
SF-295 CNS = system: SF-295 CNS
A549 NSCLC = system: A549 NSCLC
NCI-H23 lung = system: NCI-H23 lung
HCT-116 colon = system: HCT-116 colon
DU-145 prostate = system: DU-145 prostate
HOP-62 NSCLC = system: HOP-62 NSCLC
T-47D breast = system: T-47D breast
IGROV1 ovarian = system: IGROV1 ovarian
HCT-15 colon = system: HCT-15 colon
U251 CNS = system: U251 CNS
HS 578T breast = system: HS 578T breast
UACC-62 melanoma = system: UACC-62 melanoma
K-562 leukemia = system: K-562 leukemia
MDA-MB-435 = system: MDA-MB-435
RXF 393 renal = system: RXF 393 renal
SF-268 CNS = system: SF-268 CNS
HCC-2998 colon = system: HCC-2998 colon
NCI-H460 lung = system: NCI-H460 lung
HL-60(TB) leukemia = system: HL-60(TB) leukemia
SNB-75 CNS = system: SNB-75 CNS
SF-539 CNS = system: SF-539 CNS
A498 renal = system: A498 renal
LOX IMVI melanoma = system: LOX IMVI melanoma
SW-620 colon = system: SW-620 colon
PC-3 prostate = system: PC-3 prostate
SNB-19 CNS = system: SNB-19 CNS
NCI-H522 lung = system: NCI-H522 lung
NCI/ADR-RES ovarian = system: NCI/ADR-RES ovarian
MDA-MB-231 breast = system: MDA-MB-231 breast
SK-MEL-28 melanoma = system: SK-MEL-28 melanoma
SN12C renal = system: SN12C renal
KM12 colon = system: KM12 colon
RPMI-8226 leukemia = system: RPMI-8226 leukemia
786-0 renal = system: 786-0 renal
HOP-92 NSCLC = system: HOP-92 NSCLC
UO-31 renal = system: UO-31 renal
CCRF-CEM leukemia = system: CCRF-CEM leukemia
HT29 colon = system: HT29 colon
SR leukemia = system: SR leukemia
MCF7 breast = system: MCF7 breast
MALME-3M melanoma = system: MALME-3M melanoma
OVCAR-8 ovarian = system: OVCAR-8 ovarian
TK-10 renal = system: TK-10 renal
ACHN renal = system: ACHN renal
SK-MEL-5 melanoma = system: SK-MEL-5 melanoma
CAKI-1 renal = system: CAKI-1 renal
UACC-257 melanoma = system: UACC-257 melanoma
MDA-N = system: MDA-N
OVCAR-3 ovarian = system: OVCAR-3 ovarian
COLO 205 colon = system: COLO 205 colon
NCI-H226 lung = system: NCI-H226 lung
BT-549 breast = system: BT-549 breast
MOLT-4 leukemia = system: MOLT-4 leukemia
OVCAR-5 ovarian = system: OVCAR-5 ovarian
SK-OV-3 ovarian = system: SK-OV-3 ovarian
OVCAR-4 ovarian = system: OVCAR-4 ovarian

Measured: TGI

CC(C)(C)OC(=O)NCC(=O)NC1CC=CCC1NC(=O)CNC(=O)OC(C)(C)C (stereo unspecified)
> 100 µM: all assays above
